For data set [1], the system named is human epidermoid carcinoma cells (KB). The data set can be described thus: cells. To be noted: Homo sapiens, KB, 72 h, read-out: percentage of inhibition of cellular proliferation of KB cells. Here is the method: (§1) The human cell line KB originated from the National Cancer Institute (NCI) and was grown in Dulbecco’s Modified Eagle Medium (D-MEM) medium supplemented with 10% foetal calf serum, in the presence of penicillin, streptomycin, and fungizone in a 75 mL flask under 5% CO2. A total of 600 cells were plated in 96-well tissue culture plates in 200 µL of medium and treated 24 h later with 2 μL of stock solution of compounds dissolved in DMSO using a Biomek 3000 (Beckman-Coulter, Brea, CA, USA). Controls received the same volume of DMSO (1% final volume). After 72 h exposure, cell titer 96 Aqueous One solution (Promega, Madison, WI, USA) was added and incubated for 3 h at 37 °C: the absorbance was monitored at 490 nm, and results were expressed as the inhibition of cell proliferation calculated as the ratio [(1 − (OD490 treated/OD490 control)) × 100] in triplicate experiments.

Another data set has as its system Eel AChE. Also noted: key to mode of AChE inhibition: NCI: non competitive inhibition; CI: competitive inhibition; ND: non described. The note with it: cited from earlier work; for IC50: read-out: AChE inhibition IC50.
Another data set deals with Human recombinant AchE. Also noted: method as in Sirimangkalakitti et al. 2015 [32]; key to mode of AChE inhibition: NCI: non competitive inhibition; CI: competitive inhibition; ND: non described. The note with it: ref Sirimangkalakitti et al. 2015 [32], cited from earlier work; for IC50: read-out: AChE inhibition IC50.
The subject of data set [2] is Acanthurus triostegus (reef fish). As to the kind of experiment: Reef fish feeding behavior experiment (bites on coral rubble). The note with it: for number of bites on coral pieces per recruit and per hour (in words): A. triostegus recruits (larvae undergoing metamorphosis), 1 μg/mL in tank, 72 h, p < 0.01. The class given is in vivo. Here is the method:
Manini (Acanthurus triostegus) were caught during new moon nights on the foreshore puddles at Tema’e public beach. Recruits (fish larvae undergoing metamorphosis) and juveniles (larvae after the recruits stage) were collected and immediately used for the experiments. Natural lagoon sea-water was used and UV-sterilized prior use. Three conditions were tested on three groups: control, solvent, 1 μg/mL sponge extract treatment, with 4 or 5 fishes in each 3 L tank. The fishes were exposed under semi-static system for 72 h, the experimental solutions were renewed every 24 h to maintain clean experimental conditions. The experiments were performed with fish recruits and juveniles. Rubbles were disposed in each aquarium 1 h/day during 3 days. Feeding behavior experiment consists in counting the overall number of bites on those rubbles in each aquarium. Six videos sequences (N = 6) of 5 or 10 min per aquarium and per day were analyzed. Results are expressed in number of bites per fish and per hour.
All the values of AChE activity are represented in a boxplot distribution, because of non-normality of variable distribution (N = 4 or 5). The significant differences between controls and treatments (p-value p < 0.05) were analyzed with non-parametric test of Wilcoxon Mann Whitney. In feeding deterrent assay, pairs significant differences between different conditions (p < 0.05) were tested with non-parametric Kruskal Wallis test. All statistical assays were executed using R software (R-3.2.0, The R Foundation for Statistical Computing, Vienna, Austria).

Data set [3] has as its target T1, acetylcholinesterase (AChE) (Homo sapiens, UniProt P22303).
T1 construct: purchased Sigma-Aldrich
The data set can be described thus: Acetylcholinesterase inhibition assay (Ellman's colorimetric method) and kinetic study. The class given is biochemical. Here is the method:
The crude extract of the sponge and the purified psammaplysene D (1) were dissolved in DMSO at 10 mg/mL, stored at −20 °C and diluted subsequently 100 times in H2O prior testing. Determination of AChE-inhibitory activity was measured according the Ellman’s colorimetric method, in 96-well tissue culture plates. All reagents, buffers and salts were purchased from Sigma-Aldrich (Saint-Louis, MO, USA). Galantamine was used as a positive control for each analysis. Solvent controls received the same volume of water. After a 30 min incubation at 25 °C in the dark, absorbance was monitored at λ = 405 nm. Results were expressed as the percentage of enzyme inhibition calculated as the ratio: 100 × (ODcontrol − ODtreated)/(ODcontrol − ODblank), where the blanks are the wells without AChE. Serial dilutions of the compound or extract were prepared (100, 50, 25, 12.5, 6.25, 3.12, 1.56, and 0.78 μg/mL) and tested according to the same procedure using 10 μL of each solution. IC50 values were graphically determined by plotting the percentage of inhibition against the compound concentrations. Each assay was performed in triplicate and results are expressed as mean values ± S.D.
The inhibition mode of psammaplysene D on AChE was determined while measuring the enzyme activity in presence of an increasing concentration of ATCI (0.024, 0.049, 0.098, 0.19, 0.39, 0.78, 1.57, and 3.15 μM), in absence or presence of 2 μg/mL final concentration of purified psammaplysene D. The inhibition mode, Vmax, and KM values were determined by double-reciprocal Lineweaver and Burk plot analysis (1934) of the data obtained.

In another data set the test system is AChE. The data set can be described thus: AChE activity in brain and gill extracts of exposed guppies. Format: in vivo. The note with it: guppies after 1 h exposure to 100 µg/mL, N = 5, p < 0.05.
The subject of data set [4] is Poecilia reticulata (guppy). The data set can be described thus: Guppy acute toxicity bioassay (bathing, 1 h). The class given is in vivo. To be noted: guppies. Here is the method: (§2) The screening of our French Polynesian sponges extract library was performed on acetylcholinesterase inhibitor (AChE) in the aim to investigate a possible chemical defense of sessile organisms on the reef against fishes, their main predators. […] In order to try to evaluate the effect of psammaplysene D in the environment, it was further tested on fresh water fish (guppy, Poecilia reticulata) and reef fish (Acanthurus triostegus) feeding experiment using bathing with or without the bioactive compound. Guppies are fed with commercial flakes, but the wild reef fish feed on natural coral heads, and their appetite evaluated by counting the bites on the corals. Two experiments were run on guppies using Suberea ianthelliformis crude extract and purified psammaplysene D (1): an acute toxicity bioassay (100 μg/mL of crude extract or purified psammaplysene D (1), 1 h) and a chronic toxicity (5 μg/mL of crude extract or 1 μg/mL of purified psammalysene D (1), 72 h).
5 to 8 cm long guppies (Poecilia reticulata) were collected at night in a private fresh water pool at Papara (Tahiti, French Polynesia) and immediately acclimated at the laboratory temperature (25 °C). After acclimatization, fishes were parted in two 2 L tanks: one for the control group treated with solvent (N = 5). Another experiment was performed using a 1 h treatment with 100 μg/mL of crude extract of the sponge or purified psammaplysene D (1) to check their acute toxicity.

A short description of another data set: in vitro. The note with it: human. Here is the method:
as §1

Data set [5] concerns Poecilia reticulata (guppy). The data set can be described thus: Guppy chronic (sub-lethal) exposure, feeding on flakes. Format: in vivo. The note with it: guppies, sub-lethal dose 1 μg/mL purified compound, 24 h exposure (72 h experiment). Here is the method:
as §2
5 to 8 cm long guppies (Poecilia reticulata) were collected at night in a private fresh water pool at Papara (Tahiti, French Polynesia) and immediately acclimated at the laboratory temperature (25 °C). After acclimatization, fishes were parted in two 2 L tanks: one for the control group treated with solvent (N = 5). […]

The target of another data set is Insect recombinant AChE. Also noted: method as in Sepcic et al. 2001 [33]; key to mode of AChE inhibition: NCI: non competitive inhibition; CI: competitive inhibition; ND: non described. To be noted: ref Sepcic et al. 2001 [33], cited from earlier work.

The text below walks through data of PMC5983277 (Marine Drugs, 2018).

Where two headings read alike, the source gives them in different places.

T1 sequence (P22303 32-614, species assumed): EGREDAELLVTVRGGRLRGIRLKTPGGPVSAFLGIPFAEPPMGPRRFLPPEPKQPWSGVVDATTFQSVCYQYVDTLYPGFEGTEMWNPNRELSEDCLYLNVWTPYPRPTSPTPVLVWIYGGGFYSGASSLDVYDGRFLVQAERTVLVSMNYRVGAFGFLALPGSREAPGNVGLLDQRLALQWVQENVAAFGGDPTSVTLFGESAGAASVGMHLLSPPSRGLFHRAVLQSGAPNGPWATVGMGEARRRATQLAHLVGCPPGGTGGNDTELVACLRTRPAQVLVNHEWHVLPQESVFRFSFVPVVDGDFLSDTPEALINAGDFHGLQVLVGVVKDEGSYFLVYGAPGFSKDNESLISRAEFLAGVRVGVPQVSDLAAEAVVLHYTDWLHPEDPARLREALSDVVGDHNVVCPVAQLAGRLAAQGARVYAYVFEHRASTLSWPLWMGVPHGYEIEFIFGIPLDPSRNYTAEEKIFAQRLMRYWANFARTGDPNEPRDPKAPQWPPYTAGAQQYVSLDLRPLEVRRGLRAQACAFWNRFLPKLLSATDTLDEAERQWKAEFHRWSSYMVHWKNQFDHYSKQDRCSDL

As for `CN(C)CCc1cc(Br)c(OCCCN(C)C(=O)C(Cc2cc(Br)c(O)c(Br)c2)N(C)C)c(Br)c1` (centres unmarked) [Anomoian C (6), O-demethyl anomoian B], in data set [1], the inhibition at 1 µM is 15 ± 3% and the inhibition at 10 µM was determined as 28 ± 5%.
Purealidine Q: in the data set on Eel AChE (ref Olatunji et al. 2014 [31]), the IC50 was 1.2 µM and the “mode of AChE inhibition” value was “NCI”.
As to `CN(C)CCc1cc(Br)c(O)c(Br)c1` [N,N-dimethyldibromotyramine (10), N,N-dimethyldibromotyramine], in data set [1], the inhibition at 1 µM came to 89 ± 1% and the inhibition at 10 µM amounted to 100 ± 1%.
For the compound `COC1=C(Br)[C@H](O)[C@@]2(C=C1Br)CC(C(=O)NCCCCCNC(=O)C1=NO[C@]3(C=C(Br)C(OC)=C(Br)[C@@H]3O)C1)=NO2` [Homoaerothionin], in the data set on Human recombinant AchE, the IC50 is 4.5 µM and the “mode of AChE inhibition” value is “CI”.
For `CN(C)CCCOc1c(Br)cc(CC(C(=O)N(C)CCCOc2c(Br)cc(CCN(C)C)cc2Br)N(C)C)cc1Br` (centres unmarked) [Anomoian F (9), anomoian F], in data set [1], the inhibition at 1 µM was found to be 20 ± 0.6% and the inhibition at 10 µM stood at 100 ± 0.5%.
For `CN(C)CCc1cc(Br)c(OCCCN(C)C(=O)/C=C\c2cc(Br)c(O)c(Br)c2)c(Br)c1` [Psammaplysene G (3), psammaplysene G], in data set [1], the inhibition at 1 µM came to 17 ± 1% and the inhibition at 10 µM is 75 ± 0.4%.
In the case of `CNC(Cc1cc(Br)c(O)c(Br)c1)C(=O)N(C)CCCOc1c(Br)cc(CCN(C)C)cc1Br` (centres unmarked) [Anomoian D (7), O-demethyl anomoian A], in data set [1], the inhibition at 1 µM was 17 ± 2% and the inhibition at 10 µM turned out to be 29 ± 2%.
`CN(C)CCc1cc(Br)c(OCCCN(C)C(=O)/C=C/c2cc(Br)c(O)c(Br)c2)c(Br)c1` [Psammaplysene F (2), psammaplysene F]: in data set [1], the inhibition at 1 µM was 20 ± 0.2% and the inhibition at 10 µM is 73 ± 2%.
For `CNC(Cc1cc(Br)c(OCCCN(C)C)c(Br)c1)C(=O)N(C)CCCOc1c(Br)cc(CCN(C)C)cc1Br` (centres unmarked) [Anomoian E (8), anomoian E], in that order: 6 ± 2% and 82 ± 1%.
As to `O=C(O)c1cc(O)c2c(O)ccc(O)c2n1` [5-hydroxy xanthenuric acid (11), 4,5,8-trihydroxyquinoline-2-carboxilic acid], in data set [1], the inhibition at 1 µM worked out at 6 ± 0.5% and the inhibition at 10 µM is 25 ± 1%.
Take `CN(C)CCCOc1c(Br)cc(/C=C/C(=O)N(C)CCCOc2c(Br)cc(CCN(C)C)cc2Br)cc1Br` [Psammaplysene D (1), psammaplysene D]: the “behaviour of reef fish juveniles” value in data set [2] (A. triostegus juveniles) is reported as “did not seem to be impacted”. In addition, the “number of bites on coral pieces per recruit and per hour (in words)” value was “loss of appetite from the first day of experiment” in data set [2]; “significantly and readily decreased the number of bites” in data set [2] (listed as psammaplysene D (1)). In data set [3], this compound yielded an IC50 of 1.3 µM. Also, the “mode of AChE inhibition” value in data set [3] (Lineweaver-Burk plot) was “mixed competitive/non-competitive inhibition”. In addition, in data set [3] (Lineweaver-Burk, with 2 μg/mL psammaplysene D, decreasing from 0.0036), the Vmax is 0.0007 µmol/min. Further, the “AChE activity in gills (in words)” value with AChE is on record as “mild but significant decrease”. The “behaviour during acute exposure” value in data set [4] (100 μg/mL, bathing) was “totally confused and had uncontrolled mobility”. The acute toxicity outcome in [4] (100 μg/mL, one hour bathing) is given as “death”. In data set [4] (acute exposure 100 μg/mL), the “time to onset of behavioural effects after addition to the tank” value is recorded as 20 min. It took 0.7 µM to reach half-maximal inhibition in the data set “in vitro” (IC50 at 72 h). The inhibition at 1 µM in data set [1] was 95 ± 0.5%. Also, in [1], the inhibition at 10 µM was 100 ± 0.2%. In addition, the “feeding behaviour towards food flakes” value in [5] is recorded as “loss of appetite from the first day of experiment”; in data set [5] (listed as psammalysene D (1)), “passivity of the fish towards the food flakes”.
Regarding `COC1=C(Br)C(O)C2(C=C1Br)CC(C(=O)NCC(O)COc1c(Br)cc(C3CNC(=O)O3)cc1Br)=NO2` (centres unmarked) [Fistularin 1], the IC50 in the data set on Human recombinant AchE is 47.5 µM.
On to `Br.COc1c(Br)cc(C/C(=N\O)C(=O)NCCc2cc(Br)c(OCCCN)c(Br)c2)cc1Br` [Aplysamine-4], for which the Ki at Insect recombinant AChE (read-out: AChE inhibition KI) was 2 µM; on Eel AChE (ref Sepcic et al. 2001 [33], read-out: AChE inhibition KI), 16 µM. In addition, the “mode of AChE inhibition” value in the data set with Insect recombinant AChE and with Eel AChE (ref Sepcic et al. 2001 [33]) was “NCI” throughout.
Turning to `CN[C@@H](Cc1cc(Br)c(OC)c(Br)c1)C(=O)NCCc1cc(Br)c(OCCCN(C)C)c(Br)c1` [Isoanomoian A], in the data set on Eel AChE (ref Olatunji et al. 2014 [31]), the IC50 is 70 µM and the “mode of AChE inhibition” value is on record as “NCI”.
As to Aplysanzine A, in the data set with Eel AChE (ref Olatunji et al. 2014 [31]), the IC50 is 104 µM and the “mode of AChE inhibition” value was “NCI”.
